Data from ChEMBL document CHEMBL2203227, “Macrocycles are great cycles: applications, opportunities, and challenges of synthetic macrocycles in drug discovery” (J Med Chem, 2011).

What was measured:
[1] = Oral bioavailability in dog; assay type: ADME, organism-based, Canis lupus familiaris; conditions: in vivo
[2] = Inhibition of HCV 1a NS3 protease; parameters: species or system Hepatitis C virus subtype 1a
[3] = in vivo; conditions: rat
[4] = Half life in dog; assay type: ADME, organism-based, Canis lupus familiaris; conditions: in vivo
[5] = Half life in rat; assay type: ADME, organism-based; conditions: in vivo
[6] = test system: Hepatitis C virus; experiment: microbe, parasite or virus in culture; conditions: subtype 1a
Description: Antiviral activity against HCV1a by cell based replicon assay

[7] = in vivo; conditions: rat, liver/plasma
Description: Ratio of drug level in liver to plasma of rat

[8] = test system: Hepatitis C virus; experiment: microbe, parasite or virus in culture; conditions: genotype 1b
Description: Antiviral activity against HCV1b by cell based replicon assay

[9] = Oral bioavailability in rat; assay type: ADME, organism-based; conditions: in vivo
[10] = Protein binding in human plasma; assay type: ADME, cell-free; conditions: read-out: PPB (converted)
[11] = Oral bioavailability in monkey; assay type: ADME, organism-based, Macaca mulatta; conditions: rhesus monkey, in vivo
[12] = Half life in monkey; assay type: ADME, organism-based, Macaca mulatta; conditions: rhesus monkey, in vivo
[13] = Selectivity ratio of human elastase to HCV NS3 protease
[14] = molecular target: T1, Growth hormone secretagogue receptor type 1 (Homo sapiens, UniProt Q92847); experiment: Agonist activity at ghrelin receptor by cell based assay; assay type: functional
[15] = molecular target: T1, Growth hormone secretagogue receptor type 1; experiment: Agonist activity at ghrelin receptor; assay type: functional
[16] = molecular target: High affinity nerve growth factor receptor (Homo sapiens, UniProt P04629); experiment: Inhibition of TrkA assessed as inhibition of mAb5C3 binding
[17] = molecular target: C-X-C chemokine receptor type 4 (Homo sapiens, UniProt P61073); experiment: Antagonist activity at CXCR4; assay type: functional
[18] = molecular target: Beta-secretase 1 (Homo sapiens, UniProt P56817); experiment: Inhibition of BACE1 by cell based assay
[19] = Ratio of drug level in liver to plasma of monkey; assay type: ADME, tissue-based, Macaca mulatta; conditions: rhesus monkey
[20] = Inhibition of HCV5 NS3 protease; parameters: species or system Hepatitis C virus genotype 5
[21] = Inhibition of HCV 2b NS3 protease; parameters: species or system Hepatitis C virus subtype 2b
[22] = test system: Hepatitis C virus; experiment: microbe, parasite or virus in culture
Description: Antiviral activity against HCV by cell based replicon assay

[23] = Inhibition of HCV4 NS3 protease; parameters: species or system Hepatitis C virus genotype 4
[24] = test system: Hepatitis C virus; experiment: Inhibition of HCV 1b NS3 protease; parameters: species or system Hepatitis C virus subtype 1b; conditions: Hepatitis C virus
[25] = Inhibition of HCV 3a NS3 protease; parameters: species or system Hepatitis C virus subtype 3a
[26] = Inhibition of HCV6 NS3 protease; parameters: species or system Hepatitis C virus genotype 6
[27] = molecular target: T1, Growth hormone secretagogue receptor type 1; experiment: Antagonist activity at ghrelin receptor assessed as inhibition of ghrelin-induced Ca2+ release by cell based assay; assay type: functional
[28] = molecular target: D(1A) dopamine receptor (Homo sapiens, UniProt P21728); experiment: Antagonist activity at dopamine D1 receptor; assay type: functional
[29] = molecular target: Adenosine receptor A3 (Homo sapiens, UniProt P0DMS8); experiment: Antagonist activity at adenosine A3 receptor; assay type: functional
[30] = Antagonist activity at GABA-gated chloride channel; assay type: functional
[31] = molecular target: High affinity choline transporter 1 (Homo sapiens, UniProt Q9GZV3); experiment: Antagonist activity at CHT1; assay type: functional
[32] = Oral bioavailability in rhesus monkey; assay type: ADME, organism-based, Macaca mulatta; conditions: in vivo
[33] = molecular target: T2, Renin (Homo sapiens, UniProt P00797); experiment: Inhibition of renin
T2 sequence (P00797 whole entry): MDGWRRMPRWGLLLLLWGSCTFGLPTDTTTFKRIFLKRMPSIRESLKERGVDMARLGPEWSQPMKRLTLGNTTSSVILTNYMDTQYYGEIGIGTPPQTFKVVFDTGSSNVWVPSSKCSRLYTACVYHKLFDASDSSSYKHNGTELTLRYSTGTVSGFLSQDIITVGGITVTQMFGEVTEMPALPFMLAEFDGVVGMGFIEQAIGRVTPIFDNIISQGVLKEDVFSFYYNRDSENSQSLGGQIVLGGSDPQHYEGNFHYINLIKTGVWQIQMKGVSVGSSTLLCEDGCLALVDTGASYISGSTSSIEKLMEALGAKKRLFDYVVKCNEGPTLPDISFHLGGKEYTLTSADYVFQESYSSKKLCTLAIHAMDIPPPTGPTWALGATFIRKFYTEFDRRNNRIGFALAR

[34] = molecular target: T3, Growth factor receptor-bound protein 2 (Homo sapiens, UniProt P62993); experiment: Inhibition of SH2 domain of GRB2 in human MDA-MB-453 cells; assay type: cell-based
[35] = molecular target: T3, Growth factor receptor-bound protein 2; experiment: Inhibition of SH2 domain of GRB2 in human MDA-MB-231 cells; assay type: cell-based
[36] = molecular target: T3, Growth factor receptor-bound protein 2; experiment: Inhibition of SH2 domain of GRB2 by whole cell based assay
[37] = test system: MCF7; experiment: cells; conditions: Homo sapiens
Description: Antiproliferative activity against human MCF7 cells

[38] = molecular target: Cyclin-dependent kinase 2 (Homo sapiens, UniProt P24941); experiment: Inhibition of CDK2
[39] = molecular target: Cyclin-dependent kinase 1 (Homo sapiens, UniProt P06493); experiment: Inhibition of CDK1
Cyclin-dependent kinase 1, sequence (P06493 whole entry): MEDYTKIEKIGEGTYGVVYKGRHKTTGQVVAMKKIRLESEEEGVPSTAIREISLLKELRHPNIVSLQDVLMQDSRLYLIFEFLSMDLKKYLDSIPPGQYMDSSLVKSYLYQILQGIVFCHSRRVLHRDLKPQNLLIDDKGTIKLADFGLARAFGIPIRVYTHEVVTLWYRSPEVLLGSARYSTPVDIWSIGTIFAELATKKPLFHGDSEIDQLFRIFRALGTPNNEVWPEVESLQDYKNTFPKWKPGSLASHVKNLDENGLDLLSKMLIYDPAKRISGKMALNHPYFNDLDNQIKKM

T1 sequence (Q92847 whole entry): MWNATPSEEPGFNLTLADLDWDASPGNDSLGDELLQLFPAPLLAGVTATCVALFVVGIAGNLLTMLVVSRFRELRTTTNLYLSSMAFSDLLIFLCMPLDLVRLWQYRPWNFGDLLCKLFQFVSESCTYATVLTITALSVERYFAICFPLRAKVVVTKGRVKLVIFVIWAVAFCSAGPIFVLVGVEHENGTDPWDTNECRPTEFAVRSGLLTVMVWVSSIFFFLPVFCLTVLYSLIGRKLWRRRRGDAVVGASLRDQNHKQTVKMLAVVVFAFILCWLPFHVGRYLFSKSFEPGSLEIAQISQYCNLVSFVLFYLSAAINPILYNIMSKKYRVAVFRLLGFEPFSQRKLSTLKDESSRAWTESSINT
T3 sequence (P62993 whole entry, the tested form may be a part): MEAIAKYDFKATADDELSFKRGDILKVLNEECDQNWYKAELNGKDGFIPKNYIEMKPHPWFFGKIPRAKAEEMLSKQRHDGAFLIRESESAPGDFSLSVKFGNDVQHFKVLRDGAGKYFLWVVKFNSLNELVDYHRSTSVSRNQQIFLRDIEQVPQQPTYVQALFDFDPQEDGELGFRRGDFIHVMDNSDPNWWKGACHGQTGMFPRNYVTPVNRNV
D(1A) dopamine receptor, sequence (P21728 whole entry): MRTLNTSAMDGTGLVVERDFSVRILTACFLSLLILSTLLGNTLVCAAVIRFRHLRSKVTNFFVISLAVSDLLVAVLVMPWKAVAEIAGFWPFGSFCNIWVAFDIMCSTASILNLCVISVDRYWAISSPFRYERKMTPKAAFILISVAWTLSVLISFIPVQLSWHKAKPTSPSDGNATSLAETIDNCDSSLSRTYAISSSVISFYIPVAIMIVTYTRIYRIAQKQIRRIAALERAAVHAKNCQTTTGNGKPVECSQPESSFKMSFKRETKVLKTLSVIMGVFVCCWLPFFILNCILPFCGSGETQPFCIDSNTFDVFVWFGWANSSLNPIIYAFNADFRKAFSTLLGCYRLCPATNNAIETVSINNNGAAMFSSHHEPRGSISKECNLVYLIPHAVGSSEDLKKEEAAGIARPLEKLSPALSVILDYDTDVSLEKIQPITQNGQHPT
High affinity choline transporter 1, sequence (Q9GZV3 whole entry): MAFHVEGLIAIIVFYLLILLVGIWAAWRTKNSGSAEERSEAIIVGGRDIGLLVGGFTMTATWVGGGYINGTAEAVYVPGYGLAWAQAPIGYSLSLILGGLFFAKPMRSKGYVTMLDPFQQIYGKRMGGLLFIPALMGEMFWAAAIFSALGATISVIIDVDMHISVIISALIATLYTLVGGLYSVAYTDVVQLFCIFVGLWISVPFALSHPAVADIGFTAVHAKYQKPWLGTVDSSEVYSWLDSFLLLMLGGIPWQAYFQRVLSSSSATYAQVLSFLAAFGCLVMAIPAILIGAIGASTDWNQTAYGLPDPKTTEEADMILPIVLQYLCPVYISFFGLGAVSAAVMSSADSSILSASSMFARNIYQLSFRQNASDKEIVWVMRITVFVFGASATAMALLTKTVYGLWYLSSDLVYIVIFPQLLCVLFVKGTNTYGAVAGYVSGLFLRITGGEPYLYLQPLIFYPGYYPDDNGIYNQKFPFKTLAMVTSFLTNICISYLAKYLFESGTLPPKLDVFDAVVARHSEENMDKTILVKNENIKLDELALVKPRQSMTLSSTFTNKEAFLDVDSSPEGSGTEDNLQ
Adenosine receptor A3, sequence (P0DMS8 whole entry): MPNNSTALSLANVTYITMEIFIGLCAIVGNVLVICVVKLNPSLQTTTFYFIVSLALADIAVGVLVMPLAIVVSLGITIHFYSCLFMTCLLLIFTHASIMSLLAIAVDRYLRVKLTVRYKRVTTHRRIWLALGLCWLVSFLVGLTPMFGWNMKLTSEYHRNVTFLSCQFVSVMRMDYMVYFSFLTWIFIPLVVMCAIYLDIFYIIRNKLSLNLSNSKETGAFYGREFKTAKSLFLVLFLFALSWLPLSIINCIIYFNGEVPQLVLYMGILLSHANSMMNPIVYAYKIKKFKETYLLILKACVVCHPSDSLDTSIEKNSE
C-X-C chemokine receptor type 4, sequence (P61073 whole entry): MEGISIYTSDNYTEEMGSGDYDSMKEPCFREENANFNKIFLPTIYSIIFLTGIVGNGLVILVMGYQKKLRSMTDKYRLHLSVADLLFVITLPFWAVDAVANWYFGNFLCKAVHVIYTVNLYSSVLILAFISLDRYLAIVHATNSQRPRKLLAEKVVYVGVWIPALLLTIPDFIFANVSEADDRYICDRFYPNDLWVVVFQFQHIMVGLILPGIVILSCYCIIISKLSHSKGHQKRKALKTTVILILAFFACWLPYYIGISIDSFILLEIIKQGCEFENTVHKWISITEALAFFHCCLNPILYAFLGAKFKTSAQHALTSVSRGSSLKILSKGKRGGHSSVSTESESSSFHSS
High affinity nerve growth factor receptor, sequence (P04629 whole entry): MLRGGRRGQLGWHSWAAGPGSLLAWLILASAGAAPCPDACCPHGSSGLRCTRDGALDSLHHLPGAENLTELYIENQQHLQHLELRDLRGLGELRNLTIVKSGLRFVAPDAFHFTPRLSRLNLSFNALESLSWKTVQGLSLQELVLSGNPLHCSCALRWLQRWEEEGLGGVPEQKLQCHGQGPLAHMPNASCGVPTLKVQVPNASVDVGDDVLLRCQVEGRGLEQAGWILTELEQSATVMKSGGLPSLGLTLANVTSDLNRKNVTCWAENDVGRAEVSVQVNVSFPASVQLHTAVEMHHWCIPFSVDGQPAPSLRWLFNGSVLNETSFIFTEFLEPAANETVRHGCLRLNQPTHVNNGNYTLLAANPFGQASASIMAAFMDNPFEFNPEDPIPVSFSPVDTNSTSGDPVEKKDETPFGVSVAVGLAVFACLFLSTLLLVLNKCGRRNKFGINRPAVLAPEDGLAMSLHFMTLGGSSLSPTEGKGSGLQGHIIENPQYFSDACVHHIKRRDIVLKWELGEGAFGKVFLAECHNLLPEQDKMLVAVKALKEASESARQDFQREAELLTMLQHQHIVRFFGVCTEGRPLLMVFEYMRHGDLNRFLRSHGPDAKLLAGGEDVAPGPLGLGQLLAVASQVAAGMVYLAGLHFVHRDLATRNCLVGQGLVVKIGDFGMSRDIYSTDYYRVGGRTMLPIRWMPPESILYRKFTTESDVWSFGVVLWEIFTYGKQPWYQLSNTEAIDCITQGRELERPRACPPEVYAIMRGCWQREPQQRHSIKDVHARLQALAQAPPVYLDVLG
Beta-secretase 1, sequence (P56817 whole entry): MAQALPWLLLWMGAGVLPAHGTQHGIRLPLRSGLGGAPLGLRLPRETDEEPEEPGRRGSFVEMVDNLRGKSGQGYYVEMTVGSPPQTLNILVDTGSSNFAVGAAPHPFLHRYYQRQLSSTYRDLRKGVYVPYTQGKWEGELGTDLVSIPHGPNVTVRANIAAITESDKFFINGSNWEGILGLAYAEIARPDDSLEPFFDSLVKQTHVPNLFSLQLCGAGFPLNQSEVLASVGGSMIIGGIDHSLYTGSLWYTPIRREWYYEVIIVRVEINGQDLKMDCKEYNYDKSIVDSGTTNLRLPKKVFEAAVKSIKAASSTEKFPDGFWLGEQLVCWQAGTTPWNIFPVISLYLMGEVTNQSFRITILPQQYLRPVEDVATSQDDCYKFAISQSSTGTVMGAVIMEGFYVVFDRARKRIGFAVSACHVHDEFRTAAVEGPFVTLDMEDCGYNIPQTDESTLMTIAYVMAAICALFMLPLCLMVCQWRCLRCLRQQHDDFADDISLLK

Compound: COc1ccc2c(O[C@@H]3C[C@H]4C(=O)N[C@]5(C(=O)NS(=O)(=O)C6CC6)C[C@H]5/C=C\CCCCN(C)C(=O)[C@@H]4C3)cc(-c3nc(C(C)C)cs3)nc2c1C
- bioavailability [1]: 100%
- Ki [2]: 0.5 nM
- clearance [3]: 38 mL/min/kg
- half-life [4]: 5.1 h
- half-life [5]: 4 h
- EC50 [6]: 28 nM
- Kp [7]: > 35
- EC50 [8]: 25 nM

Compound: COc1ccc2c(O[C@@H]3C[C@H]4C(=O)N[C@]5(C(=O)O)C[C@H]5/C=C\CCCCC[C@H](NC(=O)OC5CCCC5)C(=O)N4C3)cc(-c3csc(NC(C)C)n3)nc2c1
- bioavailability [1]: 36%
- bioavailability [9]: 13%
- fraction unbound [10]: 0.009
- Ki [2]: 0.3 nM
- bioavailability [11]: 7%
- half-life [12]: 7 h
- half-life [4]: 4.2 h
- half-life [5]: 0.8 h

Compound: CC(C)(C)NC(=O)N[C@H](C(=O)N1C[C@H]2[C@@H]([C@H]1C(=O)NC(CC1CCC1)C(=O)C(N)=O)C2(C)C)C(C)(C)C (stereo partly specified)
- Selectivity ratio [13]: 2800

Compound: CC[C@H](C)[C@@H]1NCCOc2ccccc2CCCNC(=O)[C@@H](Cc2ccc(Cl)cc2)NC(=O)[C@@H](C)N(C)C1=O
- EC50 [14]: 14 nM
- Ki [15]: 1 nM

Compound: NCCCC[C@@H]1NC(=O)c2cc([N+](=O)[O-])ccc2NCc2ccc(C(N)=O)cc2NC(=O)[C@H](CO)NC1=O
- IC50 [16]: 4000 nM

Compound: c1ccc(CNCc2ccc(CN3CCCNCCNCCCNCC3)cc2)nc1
- IC50 [17]: 12.4 nM

Compound: CC(C)[C@H](NC(=O)OC(C)(C)C)C(=O)N[C@@H](C)C(=O)N[C@@H](Cc1ccccc1)[C@@H](O)C[C@@H](C)C(=O)N[C@H](C(=O)NCc1ccncc1)C(C)C
- IC50 [18]: 2100 nM

Compound: CC(C)(C)OC(=O)N[C@H]1CCCCC/C=C\[C@@H]2C[C@@]2(C(=O)NS(=O)(=O)C2CC2)NC(=O)[C@@H]2C[C@@H](OC(=O)N3Cc4cccc(F)c4C3)CN2C1=O [DANOPREVIR]
- Kp [19]: 100
- IC50 [20]: 0.2 nM
- IC50 [2]: 0.2 nM
- IC50 [21]: 0.2 nM
- EC50 [22]: 1.8 nM
- IC50 [23]: 0.2 nM
- IC50 [24]: 0.2 nM
- IC50 [25]: 0.2 nM
- IC50 [26]: 0.2 nM
- Kp [7]: 10

Compound: CC[C@H](C)[C@@H]1NCCOc2ccccc2CCCNC(=O)[C@@H](Cc2ccccc2)NC(=O)[C@H](CO)N(C)C1=O
- IC50 [27]: 500 nM
- Ki [15]: 100 nM

Compound: Cn1c2cnc1OCC/C=C\CCCCOc1ccccc1-2
- IC50 [28]: 1100 nM
- IC50 [29]: 850 nM
- IC50 [30]: 7200 nM
- IC50 [31]: 3200 nM

Compound: O=C1CCC[C@H](CN2CCOCC2)OC(=O)[C@H](O)[C@H](CC2CCCCC2)NC(=O)[C@@H](NC(=O)[C@H](Cc2ccccc2)N[C@@H]2CN3CCC2CC3)CO1
- bioavailability [32]: 1%
- IC50 [33]: 1.3 nM

Compound: Cc1ccc2c(ccn2C[C@@H]2C/C=C/[C@H](c3ccc(CP(=O)(O)O)cc3)[C@H](CC(=O)O)C(=O)NC3(CCCCC3)C(=O)N[C@@H](CC(N)=O)C(=O)NC2)c1
- IC50 [34]: 630 nM
- IC50 [35]: > 10000 nM
- IC50 [36]: ≤ 10 nM

Compound: N#CCNc1nc(Nc2ccccc2)ncc1Br
- IC50 [37]: 4000 nM
- IC50 [38]: 100 nM
- IC50 [39]: 100 nM
